Assay results taken from patent publication US11993640B2, “Treating inflammatory lung disease” (United States Government as represented by the Department …, priority 2019, dated 2024).
“Also recorded” adds a separate entry of the source. Non-standard residues stand in square brackets, D forms with d. Residues, ends and D or L forms follow the SMILES beside them. *: point of attachment. Phenylacetyl(2,3,4,5,6-F5) = O=C(Cc1c(F)c(F)c(F)c(F)c1F)*; Phe(F5) = N[C@@H](Cc1c(F)c(F)c(F)c(F)c1F)C(=O)O; Phe(4-Cl) = N[C@@H](Cc1ccc(Cl)cc1)C(=O)O; hArg = N=C(N)NCCCC[C@H](N)C(=O)O; 12Ado = NCCCCCCCCCCCC(=O)O; Nle = CCCC[C@H](N)C(=O)O; Abu = CC[C@H](N)C(=O)O

Legend:
[1] = molecular target: T1, membrane GHRH-receptors on human anterior pituitary cells (Homo sapiens, UniProt Q02643); test: Competitive receptor binding, displacement of 125I-[His1,Nle27]-hGH-RH(1-32)NH2 from human pituitary membranes
T1 construct: Human pituitary was purchased from the National Hormone and Peptide Program; tissue National Hormone and Peptide Program; host or cells: human pituitary membrane fractions
T1 sequence (Q02643 23-423): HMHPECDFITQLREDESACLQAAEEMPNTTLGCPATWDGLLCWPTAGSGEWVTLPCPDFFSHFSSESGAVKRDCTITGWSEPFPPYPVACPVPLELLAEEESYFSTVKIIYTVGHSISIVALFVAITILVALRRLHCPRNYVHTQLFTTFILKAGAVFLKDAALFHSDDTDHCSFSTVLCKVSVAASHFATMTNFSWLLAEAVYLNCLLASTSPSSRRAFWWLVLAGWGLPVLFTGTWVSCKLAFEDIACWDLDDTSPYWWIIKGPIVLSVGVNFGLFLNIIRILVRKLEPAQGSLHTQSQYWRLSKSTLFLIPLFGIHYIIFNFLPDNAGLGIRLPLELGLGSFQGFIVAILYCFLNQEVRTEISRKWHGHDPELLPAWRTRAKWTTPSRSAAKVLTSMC
Protocol: Receptor binding affinities in vitro. Preparation of human pituitary membrane fractions and receptor binding of analogs of GH-RH were performed (Halmos G, Rekasi Z, Szoke B, Schally A V. (1993) Receptor 3:87-97). Human pituitary was purchased from the National Hormone and Peptide Program. […] Relative affinities compared to hGH-RH(1-29)NH2 were calculated as the ratio of IC50 (dose causing 50% inhibition of specific binding to receptors) of the tested peptides to the IC50 of hGH-RH(1-29)NH2. The values were calculated from technical duplicate tubes.
Nineteen new AVR analogs of GHRH were tested in the receptor binding assay. Table 6 presents the IC50 values of GHRH antagonists to membrane GHRH-receptors binding on human anterior pituitary cells.

[2] = test system: PC3 xenograft; test: Xenograft tumor growth in nude mice, prostate cancer PC3; format: in vivo; conditions: Panel N, 8 weeks, 5 μg/day s.c.
Protocol: (§1) The peptides' activity was compared with GHRH antagonist MIA-602. All statistical analyzses were performed from comparing GHRA antagonists to non-treated tumor (control).
(§2) Peptides and chemicals. GHRH antagonists MIA-602 and AVR-GHRH antagonists (see Table 2 above) were synthesized by solid phase methods and purified by HPLC. The peptides were dissolved in DMSO and further diluted in 10% 1, 2-propanediol. The final concentration of peptides was 50 µg/ml in 10% 1, 2-propanediol containing 0.1% of DMSO.
(§3) Cell culture. Human cancer cell lines including pancreatic (PANC-1 and CFPAC-1), lung (HCC827 and H460), stomach (NCI-N87), prostate (PC3), brest (MX-1 and HCC-1806), colorectal (HT-29), and ovarian (SK-OV-3 and OVCAR-3) were obtained from the American Type Culture Collection (ATCC) and cultured at 37° C. in a humidified 95% air/5% CO2 atmosphere in the medium recommended by ATCC.
(§4) Xenograft models of human cancers in nude mice. Female athymic (NCr nu/nu) nude mice, 5-to 6-weeks-old, obtained from the Envigo labs (Tampa, FL), were housed in laminar airflow cabinets under pathogen-free conditions with a 12-h light/12-h dark schedule, and were fed autoclaved standard chow and water. To generate mice with xenografted tumors, tumor xenografts were initiated by subcutaneous (s.c.) injection of […] human cancer cells into female nude mice. After about 4 weeks the resulting tumors were dissected and collected after removing necrosis tissues. The tumors were then cut into particles with size of ˜3 mm3 and transplanted s.c. by trocar needle into experimental animals. When tumors grew to the size of 50-60 mm3 (by volume), mice were randomized into groups and treated daily for 4-8 weeks by subcutaneous administration of 5 μg of GHRH antagonists MIA-602 or AVR-compounds (2-10 μg as indicated), or vehicle solutions (0.1% DMSO in 10% 1, 2-propanediol) respectively. Tumor sizes were measured weekly.
(§5) Statistical analysis. One-way ANOVA followed by Bonferroni comparison were performed. Data are expressed as Mean±SEM. […]

[3] = test system: HCC827 xenograft; test: Xenograft tumor growth in nude mice, lung cancer HCC827; format: in vivo; conditions: 5 μg/day s.c., vs control
Protocol: as §1, §2, §3, §4
(§6) Statistical analysis. One-way ANOVA followed by Bonferroni comparison were performed. Data are expressed as Mean±SEM. To determine statistical significance between animal groups, two-tailed Student's t-test was conducted. Differences were considered significant when p<0.05.
(§7) Results. […] FIG. 1A-N represents in vivo inhibition of tumor growth during the treatment with GHRH antagonist MIA-602 and selected AVR antagonists in nude mice xenografted with various human tumors including pancreatic cancer PANC-1 (FIG. 1A) and CFPAC-1 (FIG. 1I); lung cancer HCC827 (FIGS. 1B, C) and H460 (FIG. 1H); stomach cancer N87 (FIGS. 1D-F); colon cancer HT-29 (FIG. 1G); breast cancer MX-1 and HCC-1806 (FIGS. 1J, K); ovarian cancer SK-OV-3 and OVACAR-3 (FIGS. 1L, M) and prostate cancer PC3 (FIG. 1N). See also Table 5.

[4] = test system: SK-OV-3 xenograft; test: Xenograft tumor growth in nude mice, ovarian cancer SK-OV-3; format: in vivo; conditions: Panel L, 7 weeks
Protocol: as §1, §2, §3, §4, §6, §7

[5] = test system: OVCAR-3 xenograft; test: Xenograft tumor growth in nude mice, ovarian cancer OVCAR-3; format: in vivo; conditions: Panel M, 9 weeks
Protocol: as §1, §2, §3, §4, §5

[6] = test system: rat pituitary cells; test: Inhibition of GHRH(1-29)NH2-stimulated GH release from rat pituitary cells (ELISA); format: cell-based; conditions: analog 20 nM
Protocol: In vitro assessment of the antagonistic activity of GHRH analogs. Rats were decapitated and pituitaries were collected in pre-warmed HBSS (Hanks' Balanced Salt Solution). Tissue was then cut into small pieces and digested in HBSS medium containing 3% BSA, 50 μg/ml gentamycin and 0.5% collagenase for 50 minutes at 37° C. Cells were further dispersed by pipetting and passed through a 100 μm cell strainer with the addition of DMEM containing 50 μg/ml gentamycin, 10% horse serum and 2.5% FBS (growth medium). Cells were harvested at 475×g for 2 minutes, resuspended in fresh growth medium and seeded onto poly-D-lysine-coated 24-well plates (7 pituitaries/plate). Cells were left to recover for 4 days. Growth medium was then replaced with serum-free DMEM for 4 hours and GHRH analogs (at concentration of 20 nM) were added in DMEM containing 0.1% BSA for 30 minutes. Cells were replenished with medium containing the same concentration of the analogs and 1 nM GHRH(1-29)NH2 for 30 minutes. Medium from this step was collected, centrifuged at 800 g for 3 minutes and GH concentration was determined by ELISA (ALPCO Diagnostics, Mill Valley, CA) according to the manufacturer's instruction.

[7] = test system: HT-29 xenograft; test: Xenograft tumor growth in nude mice, colon cancer HT-29; format: in vivo; conditions: Panel G, 6 weeks
Protocol: as §1, §2, §3, §4, §6, §7

[8] = test system: NCI-N87 xenograft; test: Xenograft tumor growth in nude mice, stomach cancer N87; format: in vivo; conditions: Panel F, 4 weeks, 5 μg/day s.c., vs control
Protocol: as §1, §2, §3
as §4, with “mice were randomized into groups and treated daily for 4-8 weeks by subcutaneous administration” left out
as §6, §7

| Compound | Binding affinity to membrane receptors of human pituitary cells [1] | Tumor Growth % [2] | % Inhibition ([3]; Panel B, 7 weeks) | % Inhibition ([3]; Panel C, 8 weeks) | Tumor Growth % ([4]; 2.5 μg/day s.c.) | Tumor Growth % ([4]; 5 μg/day s.c.) | Tumor Growth % ([5]; 2.5 μg/day s.c.) | Tumor Growth % ([5]; 5 μg/day s.c.) | Inhibitory effect on the release of GH compared with MIA-602 [6] | Tumor Growth % ([7]; 2 μg/day s.c.) | Tumor Growth % ([7]; 5 μg/day s.c.) | % Inhibition [8] | IC50 ([1]; human anterior pituitary membranes, mean of two to three determinations, read-out: IC50) |
| --- | --- | --- | --- | --- | --- | --- | --- | --- | --- | --- | --- | --- | --- |
| CCCC[C@H](NC(=O)[C@@H](NC(=O)[C@H](CC(=O)O)NC(=O)[C@H](CCC(N)=O)NC(=O)[C@H](CC(C)C)NC(=O)[C@H](CC(C)C)NC(=O)[C@H](CCCCN)NC(=O)[C@H](CCCNC(=N)N)NC(=O)[C@H](C)NC(=O)[C@H](CO)NC(=O)[C@H](CC(C)C)NC(=O)[C@H](CCC(N)=O)NC(=O)[C@H](CC)NC(=O)[C@H](CC(C)C)NC(=O)[C@@H](NC(=O)[C@H](CCCCN)NC(=O)[C@H](CCCNC(=N)N)NC(=O)[C@H](Cc1c(F)c(F)c(F)c(F)c1F)NC(=O)[C@H](CCCCNC(=N)N)NC(=O)[C@H](C)NC(=O)[C@@H](NC(=O)[C@H](Cc1ccc(Cl)cc1)NC(=O)[C@@H](NC(=O)[C@H](C)NC(=O)[C@H](CC(=O)O)NC(=O)[C@@H](CCCNC(=N)N)NC(=O)[C@H](Cc1ccc(O)cc1)NC(=O)CCCCCCCCCCCNC(=O)Cc1c(F)c(F)c(F)c(F)c1F)[C@@H](C)CC)[C@@H](C)O)C(C)C)[C@@H](C)CC)C(=O)N[C@H](CCCNC(=N)N)C(=O)N[C@@H](CCCCNC(=N)N)C(=O)NCCCCCCCCCCCC(N)=O [AVR-353, 5FPhAC-Ada-Tyr-DArg-Asp-Ala-Ile-Cpa-Thr-Ala-Har-5FPhe-Arg-Lys-Val-Leu-Abu-Gln-Leu-Ser-Ala-Arg-Lys-Leu-Leu-Gln-Asp-Ile-Nle-DArg-Har-Ada-NH2] ({Phenylacetyl(2,3,4,5,6-F5)-12Ado}-Y[dR]DAI[Phe(4-Cl)]TA[hArg][Phe(F5)]RKVL[Abu]QLSARKLLQDI[Nle][dR][hArg][12Ado]-NH2) | higher binding affinity in comparison to MIA-602; also recorded: highest binding affinities | 496.7% | 71.0% | 50.0% | 1056.0% | 910.7% | 357.0% | 255.2% | higher inhibitory effects than MIA-602 | 549.30% | 494.70% | 65.0% |  |
| CCCC[C@H](NC(=O)[C@@H](NC(=O)[C@H](CC(=O)O)NC(=O)[C@H](CCC(N)=O)NC(=O)[C@H](CC(C)C)NC(=O)[C@H](CC(C)C)NC(=O)[C@H](CCCCN)NC(=O)[C@H](CCCNC(=N)N)NC(=O)[C@H](C)NC(=O)[C@H](CO)NC(=O)[C@H](CC(C)C)NC(=O)[C@H](CCC(N)=O)NC(=O)[C@H](CC)NC(=O)[C@H](CC(C)C)NC(=O)[C@@H](NC(=O)[C@H](CCCCN)NC(=O)[C@H](CCCNC(=N)N)NC(=O)[C@H](Cc1c(F)c(F)c(F)c(F)c1F)NC(=O)[C@H](CCCCNC(=N)N)NC(=O)[C@H](C)NC(=O)[C@@H](NC(=O)[C@H](Cc1ccc(Cl)cc1)NC(=O)[C@@H](NC(=O)[C@H](C)NC(=O)[C@H](CC(=O)O)NC(=O)[C@@H](CCCNC(=N)N)NC(=O)[C@H](Cc1ccc(O)cc1)NC(=O)CCCCCCCCCCCNC(=O)Cc1c(F)c(F)c(F)c(F)c1F)[C@@H](C)CC)[C@@H](C)O)C(C)C)[C@@H](C)CC)C(=O)N[C@H](CCCNC(=N)N)C(=O)N[C@@H](CCCCNC(=N)N)C(=O)NCCCCCCCCCCCC(=O)NC [AVR-354] ({Phenylacetyl(2,3,4,5,6-F5)-12Ado}-Y[dR]DAI[Phe(4-Cl)]TA[hArg][Phe(F5)]RKVL[Abu]QLSARKLLQDI[Nle][dR][hArg][12Ado]-NHMe) | higher binding affinity in comparison to MIA-602; also recorded: highest binding affinities | 343.6% |  |  |  |  |  |  |  |  | 417.90% |  | 0.14 nM |
